From patent publication US4059704A, “Tetrazole coumarin derivatives” (Beecham Group Limited, priority 1973, dated 1977)

Assays:
Rat PCA response = assay: Rat Passive Cutaneous Anaphylaxis (PCA) test; format: in vivo, Wistar rats
Procedure: All of the coumarins prepared in the preceeding Examples were submitted for biological testing. The test system was the Rat Passive Cutaneous Anaphylaxis (PCA) test described below in (ii)
i. Serum containing heat labile homocytotropic antibody was raised in rats by a method similar to that used by Mota. (I. Mota Immunology 1964, 7,681).
Male Wistar rats of 250-300 g, were injected intraperitoneally with 0.5 of Bordatella pertussis vaccine (containing 4 × 10^10 dead organism per ml.) and subcutaneously with 0.5 ml of an emulsion of adjuvant. Rats were bled by cardiac puncture on day 18, the blood was pooled and separated and serum stored at -20° and thawed only once before use.
ii. The P.C.A. test was similar to that described by Ovary and Bier (A. Ovary and O. E. Bier, Proc.Soc.Exp. Biol.Med. 1952, 81, 584) and Goose and Blair (J. Goose and AMJ. N. Blair, Immunology 1969, 16, 769).
0.1 ml of each of six twofold serial dilutions of the serum in 0.9% saline were injected intradermally into separate sites on the shaved dorsal surface of 250-350 g. Wistar rats. 72 hours later the animals were challenged by i.v. injection of 0.3 ml of 1% ovalbumin mixed with 0.1 ml of a 5% solution of pontamine sky blue dye in isotonic saline buffered with pH. 7.2 Sorenson buffer (P.B.S.). The rats were killed after 20 minutes and the diameter of the blue wheals at the antibody injection sites were measured. The starting dilution of the serum was adjusted so that there was no response, after challenge, at the site of injection of the highest dilution and a maximum response at the lowest dilution. Typically, six twofold serial dilutions of the serum from 1/4 to 1/128 were used.
Compounds were tested for their ability to reduce the diameter of the wheals at the injection sites of dilutions of antibody which on all the controls have less than maximum response. Amounts of the compounds were administered to rats each amount to a test group of six animals at a specified time prior to intravenous challenge with ovalbumin. The diameters of the blue wheals which developed on the tests group of animals were compared with those on a control group of six animals treated in the same way as the test group, but which had not received the compound under test.
% Inhibition of P.C.A. = 100 (1 - a/b)
a = The mean of the sum of the diameters of the wheals produced in the test group of animals at those antibody sites where all the control group of animals gave less than maximum response.
b = The mean of the sum of diameters of the wheals produced in the control group of animals at those antibody sites where all the animals gave less than maximum response.
The preferred method of administration was a solution of the test compound dissolved in pH 7.2 buffer and neutralised with sodium bicarbonate.

[1] = anti-allergic activity (general statement, no test detailed); conditions: in our hands
[2] = authors' conclusion in J.Chem.Soc. Perkin Trans I, 779, 1972; cited from earlier work
[3] = 0.5 h, time 30 mins prior to challenge
[4] = 1 h, time 60 mins prior to challenge
[5] = 10 min, time 10 mins prior to challenge

Row | SMILES | inhibition in vivo at 25 mg/kg (Rat PCA response; [3]) [%] | inhibition in vivo at 100 mg/kg (Rat PCA response; [3]) [%] | inhibition in vivo at 25 mg/kg (Rat PCA response; [4]) [%] | inhibition in vivo at 100 mg/kg (Rat PCA response; [4]) [%] | other results
1 | CCCc1c(-c2nnn[nH]2)c(=O)oc2ccccc12 [Example 10, 4-n-Propyl-3-(tetrazol-5-yl) coumarin] | -12 | 45 |  |  | 
2 | Cc1c(-c2nnn[nH]2)c(=O)oc2ccc(Br)cc12 [Example 2, 6-Bromo-4-methyl-3-(tetrazol-5-yl) coumarin] |  |  | 36 | 44 | 
3 | Cc1cc2oc(=O)c(-c3nnn[nH]3)c(C)c2cc1C [Example 4, 3-(Tetrazol-5-yl)-4,6,7-trimethyl coumarin] | 47 | 70 |  |  | 
4 | Cc1ccc2c(C)c(-c3nnn[nH]3)c(=O)oc2c1 [Example 6, 4,7-Dimethyl-3-(tetrazol-5-yl) coumarin] | 42 | 45 |  |  | 
5 | Cc1c(-c2nnn[nH]2)c(=O)oc2c1ccc1ccccc12 [Example 8, 7,8-Benzo-4-methyl-3-(tetrazol-5-yl) coumarin] |  |  | 20 | 30 | 
6 | Cc1c(-c2nnn[nH]2)c(=O)oc2c(Cl)cccc12 [Example 7, 8-Chloro-4-methyl-3-(tetrazol-5-yl) coumarin] | 19 | 26 |  |  | 
7 | O=c1oc2ccccc2c(-c2ccccc2)c1-c1nnn[nH]1 [Example 11, 4-Phenyl-3-(tetrazol-5-yl) coumarin] | -10 | 14 |  |  | 
8 | Cc1c(-c2nnn[nH]2)c(=O)oc2ccccc12 [Example 1, 4-Methyl-3-(tetrazol-5-yl) coumarin, reference compound] |  |  | 38 | 48 | antiallergic activity [1]: substantial antiallergic activity; anti-allergic activity [2]: no anti-allergic activity
9 | Cc1ccc2oc(=O)c(-c3nnn[nH]3)c(C)c2c1 [Example 5, 4,6-Dimethyl-3-(tetrazol-5-yl) coumarin] |  |  | 32 | 19 | 
10 | CCc1cc2oc(=O)c(-c3nnn[nH]3)c(C)c2cc1CC [Example 12, 6,7-Diethyl-4-methyl-3(tetrazol-5-yl) coumarin] |  |  | 10 | 42 | inhibition in vivo at 25 mg/kg (Rat PCA response; [5]): -6%; inhibition in vivo at 100 mg/kg (Rat PCA response; [5]): -1%
11 | Cc1c(-c2nnn[nH]2)c(=O)oc2ccc(Cl)cc12 [Example 3, 6-Chloro-4-methyl-3-(tetrazol-5-yl) coumarin] |  |  | 28 | 35 | 
12 | CCc1c(-c2nnn[nH]2)c(=O)oc2ccccc12 [Example 9, 4-Ethyl-3-(tetrazol-5-yl) coumarin] | 19 | 70 |  |  | 
